Drawing on US20200407717A1, “METHODS OF MODULATING ANTISENSE ACTIVITY” (Ionis Pharmaceuticals, Inc., priority 2018, published 2020), this text covers EC50 for 26 sequences.

One may read the EC50 as the concentration giving half of the maximal effect.

e = 2'-O-(2-methoxyethyl) (MOE); k = constrained ethyl (cEt); d = 2'-deoxy (DNA); f = 2'-fluoro

The target in the data set is EGFR (Homo sapiens, UniProt P00533). As to the kind of experiment: Competitive NanoBRET binding assay. Further details: made in house; host or cells: HEK293 cells. The conditions noted are these: Competitive BRET vs 10 nM AF594-labeled 766636; Table 6. The method, then:
NanoBRET (bioluminescence resonance energy transfer) binding assays were performed as described in Vickers and Crooke. PLOS One, 11(8), (2016). An EGFR NLuc construct was prepared by first amplifying human EGFR from the full length cDNA clone (Origene RC217223) with forward PCR primer 5′-[…]-3′ (SEQ ID NO: 1) and reverse PCR primer 5′-[…] (SEQ ID NO: 2). The amplified product was ligated into the NheI and XhoI sites of the NanoLuc expression vector pFC32K Nluc CMV-Neo (Promega). Protein was expressed in HEK293 cells and isolated using Protein G magnetic beads. For competitive BRET, the Alexafluor594-labeled modified oligonucleotide 766636 was diluted into water in opaque white 96-well plates at 10 nM and competed with 0.1-10,000 nM of unlabeled modified oligonucleotide. […] of 2× binding buffer containing […] (relative luminescence units) beads/well was added and plates were shaken for 10 minutes at room temperature. Nanoluciferase activity and BRET were measured in a Glowmax Discover plate reader and EC50 values, shown in the tables below, were calculated using GraphPad Prism. For direct BRET, Alexafluor594 modified nucleotides were diluted at 0.1-10,000 nM and experiments were performed as described above.
Take “TGGTAATCCACTTTCAGAGG (sugars from the 5' end e5 d10 e5, all phosphorothioate, methylation of C not given here) [compound 404071, 5-10-5 2′-MOE gapmer, phosphorothioate]”: the EC50 was determined as 3.14 µM.
Then “CTGATGATCTGCAGGTTTTC (sugars from the 5' end f5 d10 f5, all phosphorothioate, methylation of C and T or U not given here) [compound 1147367]”, with 0.114 µM; and “GGCCATCACGCCACAG (sugars from the 5' end k3 d10 k3, all phosphorothioate, methylation of C not given here) [compound 998997, 3-10-3 cEt gapmer, phosphorothioate]”, with 2.8 µM.
Then “TGGCAGTGATGGCATG (sugars from the 5' end k3 d10 k3, all phosphorothioate, methylation of C not given here) [compound 999000]”, with 1.4 µM; and “CTAACATGCAATACTGCAGA (sugars from the 5' end e5 d10 e5, all phosphorothioate, methylation of C not given here) [compound 395257, 5-10-5 2′-MOE gapmer, phosphorothioate]”, with 2.63 µM; and “AGTTGTCATGGATGAC (sugars from the 5' end k3 d10 k3, all phosphorothioate, methylation of C not given here) [compound 999003]”, with 2.3 µM.
Then “CUGUUGGGATATTTTAGCCU (sugars from the 5' end f5 d10 f5, all phosphorothioate, methylation of C not given here) [compound 1147366]”, with 0.0873 µM; and “ACCCAATTCAGAAGGAAGGA (sugars from the 5' end e5 d10 e5, all phosphorothioate, methylation of C not given here) [compound 476366, 5-10-5 2′-MOE gapmer, phosphorothioate]”, with 2.24 µM.
Sequence “TTCTGGGCAGCCCCAC (sugars from the 5' end k3 d10 k3, all phosphorothioate, methylation of C not given here) [compound 998996, 3-10-3 cEt gapmer, phosphorothioate]” gave a 50% effective concentration (EC50) of 1.43 µM.
With “TAAGTACTACTGGGCCATGG (sugars from the 5' end e5 d10 e5, all phosphorothioate, methylation of C not given here) [compound 324568, 5-10-5 2′-MOE gapmer, phosphorothioate]” the figure was 0.648 µM; with “TTTTGGCAAAGTAATCGTCC (sugars from the 5' end e5 d10 e5, all phosphorothioate, methylation of C not given here) [compound 286529, 5-10-5 2′-MOE gapmer, phosphorothioate]”, 1.84 µM; with “AATCTCCTTGCTGTATTTGT (sugars from the 5' end f5 d10 f5, all phosphorothioate, methylation of C and T or U not given here) [compound 1147334, 5-10-5 2′-F gapmer, phosphorothioate]”, 4.37 µM.
Then “TCGTCTGTGCATCTCTCCTG (sugars from the 5' end f5 d10 f5, all phosphorothioate, methylation of C and T or U not given here) [compound 1147291, 5-10-5 2′-F gapmer, phosphorothioate]”, with 0.165 µM; and “CCTTCCACAATGCCAA (sugars from the 5' end k3 d10 k3, all phosphorothioate, methylation of C not given here) [compound 999002, 3-10-3 cEt gapmer, phosphorothioate]”, with 0.633 µM; and “GACTGTGGTCATGAGC (sugars from the 5' end k3 d10 k3, all phosphorothioate, methylation of C not given here) [compound 999001]”, with 2.34 µM.
With “GAGTCAGTATCCCAGTGTCT (sugars from the 5' end f5 d10 f5, all phosphorothioate, methylation of C and T or U not given here) [compound 1147314, 5-10-5 2′-F gapmer, phosphorothioate]” the figure was 0.218 µM; with “ATATTGCATCAGATCTCAAT (sugars from the 5' end f5 d10 f5, all phosphorothioate, methylation of C and T or U not given here) [compound 1147370]”, 4.65 µM.
As to “AUAAUCTTCCAGGGCCACAA (sugars from the 5' end f5 d10 f5, all phosphorothioate, methylation of C not given here) [compound 1147360, 5-10-5 2′-F gapmer, phosphorothioate]”, the EC50 stood at 0.108 µM.
“CTTTCCAGAGGGGCCA (sugars from the 5' end k3 d10 k3, all phosphorothioate, methylation of C not given here) [compound 998998, 3-10-3 cEt gapmer, phosphorothioate]” gave an EC50 of 0.00725 µM.
Then “CCTTCCCTGAAGGTTCCTCC (sugars from the 5' end f5 d10 f5, all phosphorothioate, methylation of C and T or U not given here) [compound 804856, 5-10-5 2′-F gapmer, phosphorothioate]”, with 2.75 µM; and “AAGCAGTTGGTGGTGC (sugars from the 5' end k3 d10 k3, all phosphorothioate, methylation of C not given here) [compound 999005]”, with 0.0391 µM; and “AACGAGGTACTGTGTAAGTC (sugars from the 5' end f5 d10 f5, all phosphorothioate, methylation of C and T or U not given here) [compound 1147369]”, with 2.63 µM.
“TCCACAGTCTTCTGGG (sugars from the 5' end k3 d10 k3, all phosphorothioate, methylation of C not given here) [compound 998999, 3-10-3 cEt gapmer, phosphorothioate]” displayed an EC50 of 0.214 µM.
With “AGGATGCATTGCTGAC (sugars from the 5' end k3 d10 k3, all phosphorothioate, methylation of C not given here) [compound 999006]” the figure was 1.71 µM; with “CAGCAGGCAACTGTCGCTGA (sugars from the 5' end e5 d10 e5, all phosphorothioate, methylation of C not given here) [compound 462026, 5-10-5 2′-MOE gapmer, phosphorothioate]”, 0.67 µM; with “ACACGGTATTGCCCTTGAAA (sugars from the 5' end e5 d10 e5, all phosphorothioate, methylation of C not given here) [compound 110128, 5-10-5 2′-MOE gapmer, phosphorothioate]”, 2.28 µM.
